The target of test [1] is T1, KCNQ2/3 channels (Homo sapiens, UniProt O43525+O43526).
T1 construct: expressed in transfected cells; host or cells: CHO-K1 cells kept under selection antibiotics
Put plainly: Fluorescence assay using a voltage sensitive dye (fluorimetry). The class given is cell-based. The settings on record: CHO-K1 cells expressing KCNQ2/3 channels; for Emax: read-out: Fluorimetry % efficacy (RTG = 100%). How it is done:
Pharmacological Experiments Method I. Fluorescence Assay Using a Voltage Sensitive Dye (Fluorimetry)
[…] CHO-K1 cells expressing KCNQ2/3 channels are cultivated adherently at 37° C., 5% CO2 and 95% humidity in cell culture bottles (e.g. 80 cm^2 TC flasks, Nunc) with DMEM-high glucose (Sigma Aldrich, D7777) including 10% FCS (PAN Biotech, e.g. 3302-P270521) or alternatively MEM Alpha Medium (1×, liquid, Invitrogen, #22571), 10% fetal calf serum (FCS) (Invitrogen, #10270-106, heat-inactivated) and the necessary selection antibiotics.
Before being sown out for the measurements, the cells are washed with 1×DPBS buffer Ca^2+/Mg^2+-free (e.g. Invitrogen, #14190-094) and detached from the bottom of the culture vessel by using Accutase (PAA Laboratories, #L11-007) (incubation with Accutase for 15 min at 37° C.). The cell number is determined using a CASY™ cell counter (TCC, Schärfe System). Depending on the optimal density for each individual cell line, 20,000-30,000 cells/well/100 μl are seeded onto 96-well Corning™ CellBIND™ assay plates (Flat Clear Bottom Black Polystyrene Microplates, #3340). Freshly seeded cells are then left to settle for one hour at room temperature, followed by incubation for 24 hours at 37° C., 5% CO2 and 95% humidity.
The voltage-sensitive fluorescent dye from the Membrane Potential Assay Kit (Red™ Bulk format part R8123 for FLIPR, MDS Analytical Technologies™) is prepared by dissolving the contents of one vessel Membrane Potential Assay Kit Red Component A in 200 ml of extracellular buffer (ES buffer, 120 mM NaCl, 1 mM KCl, 10 mM HEPES, 2 mM CaCl2, 2 mM MgCl2, 10 mM glucose; pH 7.4). After removal of the nutrient medium, the cells are washed once with 200 μl of ES buffer, then loaded for 45 min at room temperature in 100 μl of dye solution in the dark.
Fluorescence measurements are carried out in a BMG Labtech FLUOstar™, BMG Labtech NOVOstar™ or BMG Labtech POLARstar™ instrument (525 nm excitation, 560 nm emission, Bottom Read mode). After incubation with the dye, 50 μl of the test substances in the desired concentrations, or 50 μl of ES buffer for control purposes, are applied to the wells of the assay plate and incubated for 30 min at room temperature while being shielded from light. The fluorescence intensity of the dye is then measured for 5 min and the fluorescence value F1 of each well is thus determined at a given, constant time. 15 μl of a KCl solution are then added to each well (final concentration of potassium ions 92 mM). The change in fluorescence intensity is subsequently monitored until all the relevant values have been obtained (mainly 5-30 min). At a given time post KCl application, a fluorescence value F2 is determined, in this case at the time of the fluorescence peak.
For calculation, the fluorescence intensity F2 is corrected for the fluorescence intensity F1, and the activity (ΔF/F) of the target compound on the potassium channel is determined as follows:
In order to determine whether a substance has agonistic activity,
A substance has an agonistic activity on the potassium channel if
[formula] increases dose dependently.
Calculations of EC50 and IC50 values are carried out with the aid of ‘Prism v4.0’ software (GraphPad Software™).

In test [2] the test system is rat. Description: Low-intensity tail flick test (rat). Type of test: in vivo. Particulars: for ED50: po, peroral, at time of maximum efficacy. On the procedure:
Method II. Low-Intensity Tail Flick Test (Rat)
In the low-intensity tail flick test, the determination of the antinociceptive effect of the compounds according to the invention towards an acute noxious thermal stimulus is carried out by measuring the withdrawal reflex of the rat tail (tail flick) in response to a radiant heat beam (analgesia meter; model 2011 of the company Rhema Labortechnik, Hofheim, Germany) according to the method described by D'Amour and Smith (J. Pharm. Exp. Ther. 72, 74 79 (1941). To this end, the rats were placed in a plexiglas restrainer, and a low-intensity radiant heat beam (48° C.) was focused onto the dorsal surface of the tail root. The stimulus intensity was adjusted to result in a mean pre-drug control withdrawal latency of about 7 s, thus also allowing a supraspinal modulation of the spinally mediated acute nociceptive reflex. A cutoff time of 30 s was applied to avoid tissue damage. Male Sprague-Dawley rats (Janvier, Le Genest St. Isle, Frankreich) with weights of 200-250 g were used. 10 rats were used per group. Before administration of a compound according to the invention, the animals were pre-tested twice in the course of five minutes and the mean of these measurements was calculated as the pre-test mean. The antinociceptive effect was determined at 20, 40 and 60 min after peroral compound administration. The antinociceptive effect was calculated based on the increase in the tail withdrawal latency according to the following formula and is expressed as percentage of the maximum possible effect (MPE [%]): MPE=[(T1−T0)/(T2−T0)]*100
In this, T0 is the control latency time before and T1 the latency time after administration of the compound, T2 is the cutoff time and MPE is the maximum possible effect. Employing variant analysis (repeated measures ANOVA) allowed testing of statistically significant differences between the compounds according to the invention and the vehicle group. The significance level was set to p≦0.05. To determine the dose dependency, the particular compound according to the invention was administered in 3-5 logarithmically increasing doses, including a threshold dose and a maximum effective dose, and the ED50 values were determined with the aid of regression analysis. The ED50 calculation was performed at the time of maximum efficacy (usually 20 min after administration of the compounds).

Where [3] appears, read: relative to retigabine (RTG) = 100%.

pEC50: −log10 of the molar value.

In test [1], `Cc1c(C(=O)NCc2ccc(F)cc2)c(=O)n(C)c2cc(C(F)(F)F)ccc12` [Example 6, N-[(4-fluorophenyl)-methyl]-1,4-dimethyl-2-oxo-7-(trifluoromethyl)-1H-quinoline-3-carboxylic acid amide] had a negative-log EC50 (pEC50) of 6.72. Moreover, the Emax in test [1] (setting [3]) was 169%. In test [2], the ED50 is 0.6 mg/kg.
`Cc1c(C(=O)NCc2cccc(F)c2)c(=O)n(C)c2cc(C(F)(F)F)ccc12` [Example 1, N-[(3-fluorophenyl)-methyl]-1,4-dimethyl-2-oxo-7-(trifluoromethyl)-1H-quinoline-3-carboxylic acid amide] had a pEC50 in test [1] of 6.61. In addition, the Emax in test [1] (setting [3]) turned out to be 177%. Moreover, it took a dose of 2.3 mg/kg to reach the 50% effect level in test [2] (ED50).
In test [1], `COCCn1c(=O)c(C(=O)NCc2ccc(F)cc2)c(C)c2ccc(C(F)(F)F)cc21` [Example 7, N-[(4-fluorophenyl)-methyl]-1-(2-methoxy-ethyl)-4-methyl-2-oxo-7-(trifluoromethyl)-1H-quinoline-3-carboxylic acid amide] had a pEC50 of 6.22. In addition, in test [1] (setting [3]), the Emax amounted to 146%. Moreover, the “Low intensity tail flick, rat, peroral, MPE (dose)” value in test [2] (dose 3.16 mg/kg) is listed as 47 (3.16) %.
The molecule `Cc1c(C(=O)NCc2cccc(F)c2)c(=S)n(C)c2cc(C(F)(F)F)ccc12` [Example 3, N-[(3-fluorophenyl)-methyl]-1,4-dimethyl-2-thioxo-7-(trifluoromethyl)-1H-quinoline-3-carboxylic acid amide] had a negative logarithm of the EC50 (pEC50) in test [1] of 6.91. For the same molecule, the Emax in test [1] (setting [3]) came out at 101%. In test [2] (dose 10.00 mg/kg), the “Low intensity tail flick, rat, peroral, MPE (dose)” value is listed as 24 (10.00) %.
Regarding `CCC(COC)n1c(=O)c(C(=O)NCc2cccc(F)c2)c(C)c2ccc(C(F)(F)F)cc21` (stereo not shown) [Example 30, N-[(3-fluorophenyl)-methyl]-1-[1-(methoxymethyl)-propyl]-4-methyl-2-oxo-7-(trifluoromethyl)-1H-quinoline-3-carboxylic acid amide], the pEC50 in test [1] was 6.71. Further, the Emax in test [1] (setting [3]) turned out to be 133%.
For “2-[3-[(3-fluorophenyl)-methyl-carbamoyl]-4-methyl-2-oxo-7-(trifluoromethyl)-1H-quinolin-1-yl]-acetic acid methyl ester [Example 26]”, in test [1], the pEC50 is 6.00. For the same molecule, the “Fluorimetry % efficacy (RTG = 100%)” value in test [1] (setting [3]) stood at 108%.
Molecule `CCCn1c(=O)c(C(=O)NCc2cccc(F)c2)c(C)c2ccc(C(F)(F)F)cc21` [Example 11, N-[(3-fluorophenyl)-methyl]-4-methyl-2-oxo-1-propyl-7-(trifluoromethyl)-1H-quinoline-3-carboxylic acid amide] showed a negative-log EC50 (pEC50) in test [1] of 6.39. Also, the Emax in test [1] (setting [3]) was determined as 167%.
As to `CCCCCn1c(=O)c(C(=O)NCc2cccc(F)c2)c(C)c2ccc(C(F)(F)F)cc21` [Example 41, N-[(3-fluorophenyl)-methyl]-4-methyl-2-oxo-1-pentyl-7-(trifluoromethyl)-1H-quinoline-3-carboxylic acid amide], in test [1] (setting [3]), the Emax was 18%.
`COCCn1c(=O)c(C(=O)NCc2cccc(F)c2)c(C)c2ccc(C(F)(F)F)cc21` [Example 4, N-[(3-fluorophenyl)-methyl]-1-(2-methoxy-ethyl)-4-methyl-2-oxo-7-(trifluoromethyl)-1H-quinoline-3-carboxylic acid amide] had a pEC50 in test [1] of 6.07. Also, the Emax in test [1] (setting [3]) is 195%. In addition, the ED50 in test [2] worked out at 2.8 mg/kg.
For `Cn1c(=O)c(C(=O)NCc2cccc(F)c2)c(C(F)(F)F)c2ccccc21` [Example 42, N-[(3-fluorophenyl)-methyl]-1-methyl-2-oxo-4-(trifluoromethyl)-1H-quinoline-3-carboxylic acid amide], in test [1], the negative-log EC50 (pEC50) was 5.30. For the same molecule, in test [1] (setting [3]), the Emax is 103%.
In test [1], `Cc1c(C(=O)NCc2ccc(F)cc2)c(=O)n(C)c2cc(C#N)ccc12` [Example 21, 7-cyano-N-[(4-fluorophenyl)-methyl]-1,4-dimethyl-2-oxo-1H-quinoline-3-carboxylic acid amide] gave a pEC50 of 6.08. Moreover, the Emax in test [1] (setting [3]) stood at 136%.
In the same order, the values of `Cc1c(C(=O)NCc2cccc(F)c2)c(=O)n(C)c2cc(OC(F)(F)F)ccc12` [Example 33, N-[(3-fluorophenyl)-methyl]-1,4-dimethyl-2-oxo-7-(trifluoromethyloxy)-1H-quinoline-3-carboxylic acid amide] are 6.41 and 138%.
Regarding `COCC(C)n1c(=O)c(C(=O)NCc2cccc(F)c2)c(C)c2ccc(C(F)(F)F)cc21` (stereo not shown) [Example 35, N-[(3-fluorophenyl)-methyl]-1-(2-methoxy-1-methyl-ethyl)-4-methyl-2-oxo-7-(trifluoromethyl)-1H-quinoline-3-carboxylic acid amide], in test [1], the negative logarithm of the EC50 (pEC50) is 6.94. Also, the Emax in test [1] (setting [3]) was found to be 118%.
`COCCn1c(=O)c(C(=O)NCc2ccc(F)cc2)c(C)c2ccc(C#N)cc21` [Example 23, 7-cyano-N-[(4-fluorophenyl)-methyl]-1-(2-methoxy-ethyl)-4-methyl-2-oxo-1H-quinoline-3-carboxylic acid amide]: the negative-log EC50 (pEC50) in test [1] is 5.41. Moreover, in test [1] (setting [3]), the Emax was determined as 105%.
`Cc1c(C(=O)NCc2cccc(F)c2)c(=O)n(CCC(C)C)c2cc(C(F)(F)F)ccc12` [Example 12, N-[(3-fluorophenyl)-methyl]-4-methyl-1-(3-methyl-butyl)-2-oxo-7-(trifluoromethyl)-1H-quinoline-3-carboxylic acid amide]: the Emax in test [1] (setting [3]) is 33%.
In the case of `CCOCCn1c(=O)c(C(=O)NCc2cccc(F)c2)c(C)c2ccc(C(F)(F)F)cc21` [Example 39, 1-(2-ethoxy-ethyl)-N-[(3-fluorophenyl)-methyl]-4-methyl-2-oxo-7-(trifluoromethyl)-1H-quinoline-3-carboxylic acid amide], the Emax in test [1] (setting [3]) was 43%.
Molecule `COC(C)Cn1c(=O)c(C(=O)NCc2cccc(F)c2)c(C)c2ccc(C(F)(F)F)cc21` (stereo not shown) [Example 43, N-[(3-fluorophenyl)-methyl]-1-(2-methoxy-propyl)-4-methyl-2-oxo-7-(trifluoromethyl)-1H-quinoline-3-carboxylic acid amide] gave a pEC50 in test [1] of 5.77. The Emax in test [1] (setting [3]) was determined as 100%.
For the molecule `COC(=O)CCn1c(=O)c(C(=O)N(C)c2cccc(F)c2)c(C)c2ccc(C(F)(F)F)cc21` [Example 27, 3-[3-[(3-fluorophenyl)-methyl-carbamoyl]-4-methyl-2-oxo-7-(trifluoromethyl)-1H-quinolin-1-yl]-propionic acid methyl ester], in test [1] (setting [3]), the Emax was found to be 22%.

Source of the values: US8653102B2, “Substituted 2-oxo- and 2-thioxo-dihydroquinoline-3-carboxamides as KCNQ2/3 modulators” (Gruenenthal GmbH, priority 2010, dated 2014).
